For 13 compounds, IC50 results are on record in US6656971B2, “Trisubstituted carbocyclic cyclophilin binding compounds and their use” (Guilford Pharmaceuticals Inc., priority 2001, dated 2003).

Each structure is given as a SMILES string.

Common to all, as to type: biochemical
The target of experiment [1] is T1, human recombinant CyPA (Homo sapiens, UniProt P62937). Kind of experiment: Rotamase (PPIase) inhibition, chymotrypsin-coupled cuvette assay, human recombinant CyPA. To be noted: Table A, value without asterisk: human recombinant CyPA. The text has this: A number of substrates for rotamase are known in the art or can be derived from those known. Typically, the substrate contacts a sample containing a protein with rotamase activity and the conversion of the substrate is detected after a period of time. The method for detecting conversion of the substrate will vary with the particular substrate chosen. One method has been termed the Ki test (See Harding, et al., Nature, 341:758-760 (1989); and Holt et al., J. Am. Chem. Soc., 115:9923-9938). The cis-trans isomerization of an alanine-proline bond in a model substrate, N-succinyl-Ala-Ala-Pro-Phe-p-nitroanilide (SEQ ID NO: 1), is monitored spectrophotometrically in a chymotrypsin-coupled assay. The action of chymotrypsin releases p-nitroaniline from only the trans form of the substrate. The amount of p-nitroaniline can be monitored in a spectrophotometer, for example. Other methods of detecting the presence of p-nitroaniline can also be used. The inhibition of this reaction caused by different concentrations of inhibitor is determined and the data are analyzed as a change in first-order rate constant as a function of inhibitor concentration, which yields the Ki value.
The following were added to a plastic cuvette: 950 μl of ice cold assay buffer (25 mM HEPES, pH 7.8, 100 mM NaCl), 10 μL of CyP A (2.5 μM in 10 mM Tris-Cl pH 7.5, 100 mM NaCl, 1 mM dithiothreitol), 25 μL of chymotrypsin (50 mg/ml in 1 mM HCl), and 10 μL of test compound, at various concentrations, in dimethyl sulfoxide. The reaction was initiated by the addition of 5 μL of substrate (succinyl-Ala-Phe-Pro-Phe-para-nitroanilide (SEQ ID NO: 1), 5 mg/mL in 470 mM LiCl in trifluoroethanol). The absorbance at 390 nm versus time was monitored for 90 seconds using a spectrophotometer and the rate constants were determined from the absorbance versus time data files.
The IC50 values which were obtained for representative compounds are given in the following Table A, and refer to the concentration that inhibits 50% of the rotamase activity in a sample.
The Cyclophilin utilized was a human recombinant CyPA, [Yoo et al., J. Mol. Biol., 269 (1997) 780-95].

Experiment [2] has as its target T1, human recombinant CyPA. Kind of experiment: Semiautomated microtiter plate assay of rotamase activity inhibition, human recombinant CyPA. To be noted: Table B, value without asterisk: human recombinant CyPA. The procedure:
Rotamase inhibition was determined using a semiautomated microtiter plate assay modification of the above described assay [see Küllertz et al., Clin. Chem. 44, 502-508 (1998)]. All dilutions of CyPA, peptide substrate, and chymotrypsin were made in 35 mM ice-cold HEPES buffer. Fifty μL of CyPA solution is added to 50 μL of the peptide substrate solution (Phe-Pro-Phe p-nitroanilide, 0.16 mg/ml) in a glass microtiter well plate (the concentration of human recombinant CyP being adjusted so that the reaction rate is increased by a factor of 3 as compared to an uncatalyzed control reaction wherein the peptide substrate is degraded by chymotrypsin alone, in the absence of CyPA and test compound). Using a Beckman Multimek™ 96 automated 96-channel pipettor, 5 μL of test compound solution, or a DMSO blank, were added to each well for a 30 minute preincubation at 4° C. One hundred μL of chymotrypsin solution (1 mg/mL) were added to each well and the absorbance at 390 nm versus time was monitored for 9-10 minutes using a BioRad Ultramark plate reader maintained at 4° C. and the rate constants were determined from the absorbance versus time data files.
IC50 values which were obtained for representative compounds are presented in the following Table B. The cyclophilin utilized was a human recombinant CyPA. […] While CyP A was used in these examples, other CyP proteins can be substituted.

In experiment [3] the target is T2, recombinant rat CyPA-GST fusion protein (Rattus norvegicus, UniProt P10111).
T2 construct: made in house; host or cells: E. coli BL21
Kind of experiment: Rotamase (PPIase) inhibition, chymotrypsin-coupled cuvette assay, rat CyPA-GST fusion protein. Conditions: Table A, value with asterisk: recombinant rat CyPA-GST fusion protein.

T2 sequence (P10111 2-164): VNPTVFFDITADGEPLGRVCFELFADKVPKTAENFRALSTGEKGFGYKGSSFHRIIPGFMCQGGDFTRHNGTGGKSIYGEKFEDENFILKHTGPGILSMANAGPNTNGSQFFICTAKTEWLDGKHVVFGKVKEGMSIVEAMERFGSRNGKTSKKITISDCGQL
T1 sequence (P62937 whole entry): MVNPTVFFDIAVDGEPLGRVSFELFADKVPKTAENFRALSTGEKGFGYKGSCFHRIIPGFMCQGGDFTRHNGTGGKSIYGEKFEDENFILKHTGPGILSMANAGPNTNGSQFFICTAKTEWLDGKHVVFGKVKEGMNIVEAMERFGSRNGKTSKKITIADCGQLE

In the case of `S=C(Nc1cc(Cl)cc(Cl)c1)Nc1cc(NC(=S)Nc2cc(Cl)cc(Cl)c2)cc(Nc2ccccn2)c1` [Compound 13], the IC50 is 456 nM at human recombinant CyPA [1] and 1370 nM at human recombinant CyPA [2].

Consider `O=C(NNC(=O)c1cc(O)cc(NC(=O)c2cccc(C(F)(F)F)c2)c1)c1ccccc1` [Compound 15, 1-Benzoyl-2-{3-[(3-trifluoromethyl)phenyl]carbonylamino-5-hydroxy}benzoylhydrazine], for which the IC50 was 18700 nM at human recombinant CyPA [1] and 9100 nM on human recombinant CyPA [2].

Consider `O=C(Nc1ccc(Cl)c(Cl)c1)c1cccc(COc2cc(C(=O)Nc3ccc(Cl)c(Cl)c3)cc(C(=O)Nc3ccc(Cl)c(Cl)c3)c2)c1` [Compound 38, 3-{[(3,4-dichlorophenyl)aminocarbonyl]benzyloxy}-1,5-bis-[(3,4-dichloro-phenyl)aminocarbonyl]benzene], for which, at human recombinant CyPA [1], the IC50 came out at 736 nM.

On to `O=C(Nc1cccc([N+](=O)[O-])c1)c1ccc(Br)c(C(=O)Nc2cccc([N+](=O)[O-])c2)c1` [Compound 41, {2-bromo-5-[N-(3-nitrophenyl)carbamoyl]phenyl}-N-(3-nitrophenyl) formamide], for which the IC50 at human recombinant CyPA [1] is 1370 nM.

On to `O=C(Nc1cc(Cl)cc(Cl)c1)c1cc(COc2ccc(Cl)c(Cl)c2)cc(C(=O)Nc2cc(Cl)cc(Cl)c2)c1` [Compound 20, 1-[(3,4-dichlorophenyl)oxymethyl]-3,5-bis-[(3,5-dichlorophenyl)aminocarbonyl]benzene], for which the figures for the IC50 on human recombinant CyPA [1] and at human recombinant CyPA [2] were 153 nM and 499 nM, respectively.

With `O=C(Nc1cccc(C(F)(F)F)c1)c1cc(/C=C/c2ccc3ccccc3c2)cc(C(=O)Nc2cccc(C(F)(F)F)c2)c1` [Compound 25, (5-(2-(2-naphthyl)vinyl)-3-{N-[3-(trifluoromethyl)phenyl]carbamoyl}phenyl)-N-[3-(trifluoromethyl)phenyl]formamide], the IC50 at human recombinant CyPA [1] is 297 nM; on human recombinant CyPA [2], 2030 nM.

For `O=C(Nc1cc(Cl)cc(Cl)c1)Nc1ccc(Br)c(N(S(=O)(=O)c2cc(Cl)cc(Cl)c2)S(=O)(=O)c2cc(Cl)cc(Cl)c2)c1` [Compound 29, N-(3-{bis[(3,5-dichlorophenyl)sulfonyl]amino}-4-bromophenyl)[(3,5-dichlorophenyl)amino]formamide], the IC50 in experiment [3] was determined as 10000 nM.

As to `COc1ccc(NC(=O)C(c2ccccc2)c2ccccc2)cc1OCc1cccc2ccccc12` [Compound 49, N-[4-methoxy-3-(naphthylmethoxy)phenyl]-2,2-diphenylethanamide], in experiment [3], the IC50 came to 1020 nM.

As to `COc1ccc(NC(=O)Cc2cccc3ccccc23)cc1OCc1cccc2ccccc12` [Compound 48, N-[4-methoxy-3-(naphthylmethoxy)phenyl]-2-naphthylethanamide], the IC50 in experiment [3] worked out at 1190 nM.

On to `O=C(Nc1ccc(Cl)c(C(F)(F)F)c1)c1cccc(COc2cc(C(=O)Nc3ccc(Cl)c(C(F)(F)F)c3)cc(C(=O)Nc3ccc(Cl)c(C(F)(F)F)c3)c2)c1` [Compound 37, 3-{[(3-Trifluoromethyl-4-chlorophenyl)aminocarbonyl]benzyloxy}-1,5-bis-[(3-trifluoromethyl-4-chlorophenyl)aminocarbonyl]benzene], for which the IC50 on human recombinant CyPA [1] stood at 1200 nM.

In the case of `N#Cc1ccccc1-c1ccc(COc2cc(C(=O)NCCc3ccc(Cl)c(Cl)c3)cc(C(=O)NCCc3ccc(Cl)c(Cl)c3)c2)cc1` [Compound 21, 1-[4-(2-cyanophenyl)benzy]loxy-3,5-bis{2-[(3,4-dichlorophenyl)ethyl]aminocarbonyl}benzene], the IC50 at human recombinant CyPA [1] turned out to be 490 nM; at human recombinant CyPA [2] it was 1730 nM.

With `S=C(Nc1cc(Cl)cc(Cl)c1)Nc1cc(OCc2cccc3ccccc23)ccc1Br` [Compound 33, [(3,5-Dichlorophenyl)amino]{[2-bromo-5-(naphthylmethoxy)phenyl]amino}methane-1-thione], in experiment [3], the IC50 worked out at 707 nM.

With `O=C1c2ccccc2C(=O)N1Cc1cc(NC(=S)Nc2cc(Cl)cc(Cl)c2)cc(NC(=S)Nc2cc(Cl)cc(Cl)c2)c1` [Compound 27, 2-{[3,5-bis({[(3,5-dichlorophenyl)amino]thioxomethyl}amino)phenyl]methyl}iso-indoline-1,3-dione], the IC50 in experiment [3] was 214 nM.
